# Positions of bridges follow the written chain, without caps; N, C: chain ends. Non-standard residues stand in square brackets, D forms with d. Residues, ends and D or L forms follow the SMILES beside them. Trp(1-CH2COOH) = N[C@@H](Cc1cn(CC(=O)O)c2ccccc12)C(=O)O; Phe(4-F) = N[C@@H](Cc1ccc(F)cc1)C(=O)O; Hyp = O=C(O)[C@@H]1C[C@@H](O)CN1; Aad = N[C@@H](CCCC(=O)O)C(=O)O; NMeNle = CCCC[C@H](NC)C(=O)O; Pip = O=C(O)[C@@H]1CCCCN1; Orn = NCCC[C@H](N)C(=O)O; Dab = NCC[C@H](N)C(=O)O; Dap = NC[C@H](N)C(=O)O
# Target: T1, PD-1-Ig binding to PD-L1-TVMV-His (PD-L1-His) (Homo sapiens, UniProt Q9NZQ7)
# T1 construct: hPDL1(19-239)-TVMV-His; made in house; host or cells: HEK293T cells
# Test: PD-1/PD-L1 Homogenous Time-Resolved Fluorescence (HTRF) binding assay
# Conditions: PD-1-Ig (20 nM) / PD-L1-His (10 nM); numeric values
# Source text: The ability of the macrocyclic peptides of the present disclosure to bind to PD-L1 was investigated using a PD-1/PD-L1 Homogenous Time-Resolved Fluorescence (HTRF) binding assay.
# Homogenous Time-Resolved Fluorescence (HTRF) Assays of Binding of Soluble PD-1 to Soluble PD-L1. Soluble PD-1 and soluble PD-L1 refers to proteins with carboxyl-end truncations that remove the transmembrane-spanning regions and are fused to heterologous sequences, specifically the Fc portion of the human immunoglobuling G sequence (Ig) or the hexahistidine epitope tag (His). All binding studies were performed in an HTRF assay buffer consisting of dPBS supplemented with 0.1% (w/v) bovine serum albumin and 0.05% (v/v) Tween-20. For the PD-1-Ig/PD-L1-His binding assay, inhibitors were pre-incubated with PD-L1-His (10 nM final) for 15 m in 4 μl of assay buffer, followed by addition of PD-1-Ig (20 nM final) in 1 μl of assay buffer and further incubation for 15 m. PD-L1 fusion proteins from either human, cynomologous macaques, mouse, or other species were used. HTRF detection was achieved using europium crypate-labeled anti-Ig monoclonal antibody (1 nM final) and allophycocyanin (APC) labeled anti-His monoclonal antibody (20 nM final). Antibodies were diluted in HTRF detection buffer and 5 μl was dispensed on top of binding reaction. […] Additional binding assays were established between PD-1-Ig/PD-L2-His (20 and 5 nM, respectively), CD80-His/PD-L1-Ig (100 and 10 nM, respectively) and CD80-His/CTLA4-Ig (10 and 5 nM, respectively).
# Recombinant Proteins. […] Human PD-L2-His (Sino Biologicals), CD80-His (Sino Biologicals), CTLA4-Ig (RnD Systems) were all obtained through commercial sources.
# T1 sequence (Q9NZQ7 with tags, fused parts or gaps): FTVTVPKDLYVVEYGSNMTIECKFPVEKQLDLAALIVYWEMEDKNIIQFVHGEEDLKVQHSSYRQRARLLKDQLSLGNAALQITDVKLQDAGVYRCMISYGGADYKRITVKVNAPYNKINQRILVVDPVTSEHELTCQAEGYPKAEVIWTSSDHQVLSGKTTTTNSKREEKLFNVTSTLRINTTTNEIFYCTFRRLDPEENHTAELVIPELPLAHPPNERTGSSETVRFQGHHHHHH
row,SMILES,IC50 [µM]
1,CCCC[C@H]1C(=O)N(C)[C@@H](CCCC)C(=O)N[C@@H](C)C(=O)N[C@H](C(=O)NCC(N)=O)CCCNCC(=O)N[C@@H](Cc2ccc(O)cc2)C(=O)N(C)[C@@H](C)C(=O)N[C@@H](CC(=O)O)C(=O)N2CCC[C@H]2C(=O)N[C@@H](Cc2cnc[nH]2)C(=O)N[C@@H](CCC(N)=O)C(=O)N2C[C@H](O)C[C@H]2C(=O)N[C@@H](Cc2c[nH]c3ccccc23)C(=O)N[C@@H](CO)C(=O)N[C@@H](Cc2c[nH]c3ccccc23)C(=O)N1C [Example 10013],0.07
2,CCCC[C@H]1C(=O)N(C)[C@@H](CCCC)C(=O)N[C@@H](CC(C)C)C(=O)N[C@H](C(=O)NCC(N)=O)CCNCC(=O)N[C@@H](Cc2ccc(O)cc2)C(=O)N(C)[C@@H](C)C(=O)N[C@@H](CC(N)=O)C(=O)N2CCC[C@H]2C(=O)N[C@@H](Cc2cnc[nH]2)C(=O)N[C@@H](CC(C)C)C(=O)N2C[C@H](O)C[C@H]2C(=O)N[C@@H](Cc2c[nH]c3ccccc23)C(=O)NCC(=O)N[C@@H](Cc2c[nH]c3ccccc23)C(=O)N1C [Example 10027],0.00695

# Same assay, conditions: PD-1-Ig (20 nM) / PD-L1-His (10 nM); range classes
row,SMILES,IC50 [µM]
1,CCCC[C@H]1C(=O)N(C)[C@@H](CCCC)C(=O)N[C@@H](CC(C)C)C(=O)N[C@H](C(N)=O)CNCC(=O)N[C@@H](Cc2ccc(F)cc2)C(=O)N2CCCC[C@H]2C(=O)N[C@@H](CC(N)=O)C(=O)N2CCC[C@H]2C(=O)N[C@@H](CCC(N)=O)C(=O)N[C@@H](CCC(N)=O)C(=O)N2C[C@H](O)C[C@H]2C(=O)N[C@@H](Cc2c[nH]c3ccccc23)C(=O)N[C@@H](CC(N)=O)C(=O)N[C@@H](Cc2cn(CC(=O)O)c3ccccc23)C(=O)N1C [Example 9033],0.001 to 0.0099
2,CCCC[C@H]1C(=O)N(C)[C@@H](CCCC)C(=O)N[C@@H](CCC(=O)O)C(=O)N[C@H](C(N)=O)CNCC(=O)N[C@@H](Cc2ccc(O)cc2)C(=O)N2CCCC[C@H]2C(=O)N[C@@H](CC(N)=O)C(=O)N2CCC[C@H]2C(=O)N[C@@H](CCC(N)=O)C(=O)N[C@@H](CC(=O)O)C(=O)N2C[C@H](O)C[C@H]2C(=O)N[C@@H](Cc2c[nH]c3ccccc23)C(=O)N[C@@H](CC(N)=O)C(=O)N[C@@H](Cc2cn(CC(=O)O)c3ccccc23)C(=O)N1C [Example 9043],0.001 to 0.0099
3,CCCC[C@H]1C(=O)N(C)[C@@H](CCCC)C(=O)N[C@@H](CC(C)C)C(=O)N[C@H](C(=O)NCC(N)=O)CNCC(=O)N[C@@H](Cc2ccc(O)cc2)C(=O)N(C)[C@@H](C)C(=O)N[C@@H](CC(N)=O)C(=O)N2CCC[C@H]2C(=O)N[C@@H](Cc2cnc[nH]2)C(=O)N[C@@H](CCC(N)=O)C(=O)N2C[C@H](O)C[C@H]2C(=O)N[C@@H](Cc2c[nH]c3ccccc23)C(=O)N[C@@H](CO)C(=O)N[C@@H](Cc2c[nH]c3ccccc23)C(=O)N1C [Example 10004],0.001 to 0.0099
4,CCCC[C@H]1C(=O)N(C)[C@@H](CCCC)C(=O)N[C@@H](CC(C)C)C(=O)N[C@H](C(=O)NCC(N)=O)CCCC(=O)N[C@@H](Cc2ccc(O)cc2)C(=O)N2CCCC[C@H]2C(=O)N[C@@H](CC(N)=O)C(=O)N2CCC[C@H]2C(=O)N[C@@H](CN)C(=O)N[C@@H](CCC(=O)O)C(=O)N2C[C@H](O)C[C@H]2C(=O)N[C@@H](Cc2c[nH]c3ccccc23)C(=O)N[C@@H](CCN)C(=O)N[C@@H](Cc2cn(CC(=O)O)c3ccccc23)C(=O)N1C [Example 10508] (Y[Pip]NP[Dap]E[Hyp]W[Dab][Trp(1-CH2COOH)][NMeNle][NMeNle]L[Aad]G-NH2; lactam N-14),0.01 to 0.099
5,CCCC[C@H]1C(=O)N(C)[C@@H](CCCC)C(=O)N[C@@H](CC(C)C)C(=O)N[C@H](C(=O)NCC(N)=O)CCCC(=O)N[C@@H](Cc2ccc(O)cc2)C(=O)N2CCCC[C@H]2C(=O)N[C@@H](CC(N)=O)C(=O)N2CCC[C@H]2C(=O)N[C@@H](CN)C(=O)N[C@@H](CC(C)C)C(=O)N2C[C@H](O)C[C@H]2C(=O)N[C@@H](Cc2c[nH]c3ccccc23)C(=O)N[C@@H](CCN)C(=O)N[C@@H](Cc2cn(CC(=O)O)c3ccccc23)C(=O)N1C [Example 10515] (Y[Pip]NP[Dap]L[Hyp]W[Dab][Trp(1-CH2COOH)][NMeNle][NMeNle]L[Aad]G-NH2; lactam N-14),0.01 to 0.099
6,CCCC[C@H]1C(=O)N(C)[C@@H](CCCC)C(=O)N[C@@H](CC(C)C)C(=O)N[C@H](C(N)=O)CCCC(=O)N[C@@H](Cc2ccc(OC)cc2)C(=O)N2CCCC[C@H]2C(=O)N[C@@H](CC(=O)O)C(=O)N2CCC[C@H]2C(=O)N[C@@H](CN)C(=O)N[C@@H](CC(C)C)C(=O)N2C[C@H](O)C[C@H]2C(=O)N[C@@H](Cc2c[nH]c3ccccc23)C(=O)N[C@@H](CCN)C(=O)N[C@@H](Cc2cn(CC(=O)O)c3ccccc23)C(=O)N1C [Example 10554] (Y(Me)[Pip]DP[Dap]L[Hyp]W[Dab][Trp(1-CH2COOH)][NMeNle][NMeNle]L[Aad]-NH2; lactam N-14),0.001 to 0.0099
7,CCCC[C@H]1C(=O)N(C)[C@@H](CCCC)C(=O)NC(CC(C)C)C(=O)N[C@H](C(=O)NCC(N)=O)CNCC(=O)N[C@@H](Cc2ccc(O)cc2)C(=O)N(C)[C@@H](C)C(=O)N[C@@H](CC(N)=O)C(=O)N2CCC[C@H]2C(=O)N[C@@H](CN)C(=O)N[C@@H](CCC(=O)O)C(=O)N2C[C@H](O)C[C@H]2C(=O)N[C@@H](Cc2c[nH]c3ccccc23)C(=O)N[C@@H](CCN)C(=O)N[C@@H](Cc2cn(CC(=O)O)c3ccccc23)C(=O)N1C (stereo partly drawn) [Example 1031],0.001 to 0.0099
8,CCCC[C@H]1C(=O)N(C)[C@@H](CCCC)C(=O)N[C@@H](CC(C)C)C(=O)N[C@H](C(=O)NCC(N)=O)CNCC(=O)N[C@@H](Cc2ccc(O)cc2)C(=O)N(C)[C@@H](C)C(=O)N[C@@H](CC(N)=O)C(=O)N2CCC[C@H]2C(=O)N[C@@H](Cc2cnc[nH]2)C(=O)N[C@@H](CCC(N)=O)C(=O)N2C[C@H](O)C[C@H]2C(=O)N[C@@H](Cc2c[nH]c3ccccc23)C(=O)NCC(=O)N[C@@H](Cc2cn(CC(=O)O)c3ccccc23)C(=O)N1C [Example 10020],0.01 to 0.099
9,CCCC[C@H]1C(=O)N(C)[C@@H](CCCC)C(=O)N[C@@H](CC(C)C)C(=O)N[C@H](C(N)=O)COCC(=O)N[C@@H](Cc2ccc(OC)cc2)C(=O)N2CCCC[C@H]2C(=O)N[C@@H](CC(N)=O)C(=O)N2CCC[C@H]2C(=O)N[C@@H](CN)C(=O)N[C@@H](CCC(=O)O)C(=O)N2C[C@H](O)C[C@H]2C(=O)N[C@@H](Cc2c[nH]c3ccccc23)C(=O)N[C@@H](CCN)C(=O)N[C@@H](Cc2cn(CC(=O)O)c3ccccc23)C(=O)N1C [Example 10530],0.001 to 0.0099
10,CCCC[C@H]1C(=O)N(C)[C@@H](CCCC)C(=O)N[C@@H](CC(C)C)C(=O)N[C@H](C(N)=O)COCC(=O)N[C@@H](Cc2ccc(OC)cc2)C(=O)N2CCCC[C@H]2C(=O)N[C@@H](CC(N)=O)C(=O)N2CCC[C@H]2C(=O)N[C@@H](CN)C(=O)N[C@@H](CC(C)C)C(=O)N2C[C@H](O)C[C@H]2C(=O)N[C@@H](Cc2c[nH]c3ccccc23)C(=O)N[C@@H](CCN)C(=O)N[C@@H](Cc2cn(CC(=O)O)c3ccccc23)C(=O)N1C [Example 10528],0.01 to 0.099
11,CCCC[C@H]1C(=O)N(C)[C@@H](CCCC)C(=O)N[C@@H](CC(C)C)C(=O)N[C@H](C(=O)NCC(N)=O)CNCC(=O)N[C@@H](Cc2ccc(O)cc2)C(=O)N(C)[C@@H](C)C(=O)N[C@@H](CC(=O)O)C(=O)N2CCC[C@H]2C(=O)N[C@@H](CCC(N)=O)C(=O)N[C@@H](CC(=O)O)C(=O)N2C[C@H](O)C[C@H]2C(=O)N[C@@H](Cc2c[nH]c3ccccc23)C(=O)N[C@@H](CC(N)=O)C(=O)N[C@@H](Cc2cn(CC(=O)O)c3ccccc23)C(=O)N1C [Example 9013],0.01 to 0.099
12,CCCC[C@H]1C(=O)N(C)[C@@H](CCCC)C(=O)N[C@@H](CC(C)C)C(=O)NCCC[C@H](N)C(=O)N[C@@H](Cc2ccc(F)cc2)C(=O)N2CCCC[C@H]2C(=O)N[C@@H](CC(N)=O)C(=O)N2CCC[C@H]2C(=O)N[C@@H](CN)C(=O)N[C@@H](CC(C)C)C(=O)N2C[C@H](O)C[C@H]2C(=O)N[C@@H](Cc2c[nH]c3ccccc23)C(=O)N[C@@H](CCN)C(=O)N[C@@H](Cc2cn(CC(=O)O)c3ccccc23)C(=O)N1C [Example 10550] (H-[Orn][Phe(4-F)][Pip]NP[Dap]L[Hyp]W[Dab][Trp(1-CH2COOH)][NMeNle][NMeNle]L; lactam 1-C),0.01 to 0.099
13,CCCC[C@H]1C(=O)N(C)[C@@H](CCCC)C(=O)N[C@@H](CC(C)C)C(=O)NCCC[C@H](N)C(=O)N[C@@H](Cc2ccc(O)cc2)C(=O)N2CCCC[C@H]2C(=O)N[C@@H](CC(N)=O)C(=O)N2CCC[C@H]2C(=O)N[C@@H](CN)C(=O)N[C@@H](CCC(=O)O)C(=O)N2C[C@H](O)C[C@H]2C(=O)N[C@@H](Cc2c[nH]c3ccccc23)C(=O)N[C@@H](CCN)C(=O)N[C@@H](Cc2cn(CC(=O)O)c3ccccc23)C(=O)N1C [Example 10549] (H-[Orn]Y[Pip]NP[Dap]E[Hyp]W[Dab][Trp(1-CH2COOH)][NMeNle][NMeNle]L; lactam 1-C),0.01 to 0.099

# From patent publication US9732119B2, “Immunomodulators” (BRISTOL-MYERS SQUIBB COMPANY, priority 2014, dated 2017)
